Assay results as given in patent US20230210110A1, “METHOD FOR INDUCING ENVIRONMENTAL STRESS TOLERANCE IN PLANTS” (AJINOMOTO CO., INC., priority 2020, published 2023).
“Also recorded” adds a separate entry of the source.

How the values were obtained:
[1] = tested on: tomato (variety Caramba); assay: Yield of tomato under drought stress, greenhouse pot test; assay type: in vivo; details: for Yield (g/plot accumulation): drought stress 50% water, four foliar sprays, ABA is (S)-(+)-abscisic acid, Lys is L-Lys hydrochloride, control with drought 924.2; for % to T2: yield relative to control with drought stress (T2)
Method: A pot test of tomato was carried out in a greenhouse in Valencia, Spain. The test was carried out using 20 pots (=20 replications) of tomatoes grown on pots of 0.3 m^2 size. The variety of tomato used was Caramba. Abscisic acid used was (S)-(+)-abscisic acid and Lys used was L-Lys hydrochloride. Foliar spray treatments were carried out four times. The first treatment was carried out at time 61 on the BBCH scale (BBCH61: when the first flower of the first inflorescence bloomed), the second treatment was carried out 21 days after the first treatment, the third treatment was carried out 14 days after the second treatment, and the fourth treatment was carried out 14 days after the third treatment. A harvest survey was carried out at time 82 on the BBCH scale (BBCH82: when 20% of the fruit were fully ripe and colored).

[2] = tested on: Arabidopsis thaliana; assay: Drought stress tolerance: survival rate after drought and re-watering; assay type: in vivo; details: 12 days after spray, water supplied again at 9 days; 50 μM ABA (2.5 mM Lys in the combination); Mock 8.5%
Method: A test for verifying an effect of conferring drought stress tolerance by a combination of Lys and ABA was carried out. Arabidopsis thaliana grown on rockwool under short-day conditions for 35 days was spray treated with 50 μM of ABA alone or with 2.5 mM of Lys and 50 μM of ABA in combination. As a control treatment group (Mock), Arabidopsis thaliana was spray treated with DMSO. After the spray treatment, cultivation was continued without water supply, to subject Arabidopsis thaliana to drought stress. Water was again supplied to Arabidopsis thaliana 9 days after the spray treatment, and the survival rate was measured 12 days after the spray treatment (n=94-96).

[3] = tested on: RD29B and MAPKKK18; assay: Effect of Lys derivatives and nitrogen-containing compounds on induction of environmental stress tolerance genes by ABA (activity level); assay type: in vivo, Arabidopsis thaliana; details: total of induction activities of RD29B and MAPKKK18 with 1 mM compound and 0.25 μM ABA, relative to ABA alone taken as 1; >1 enhanced, 1 no effect, <1 suppressed
Method: (§1) Four to six young Arabidopsis thaliana plants grown on a 50% concentration MS (Murashige-Skoog) agar medium were transferred to a 6-well plate containing a 50% concentration MS (Murashige-Skoog) liquid medium and pre-cultured for 16 hours, then added with a treatment solution containing each amino acid alone or a treatment solution containing a combination of each amino acid and ABA, and left for 6 hours. Then, RNA was then isolated from the plants with a nucleic acid purification kit (Promega, Maxwell (registered trademark) 16 LEV simplyRNA Tissue Kit). Then, cDNA was synthesized with a cDNA synthesis reagent for real-time PCR (Toyobo, ReverTra Ace (registered trademark) qPCR RT Master Mix).
GAPDH is a glyceraldehyde-3-phosphate dehydrogenase gene and was selected as an internal standard.
Lys or each Lys derivative is used for treatment at 1 mM and ABA at 0.25 μM.

[4] = tested on: Wheat (Norin 61); assay: Drought stress tolerance of wheat: water loss and survival rate; assay type: in vivo; details: 10 μM ABA (2.5 mM Lys in the combination)
Method: A test for verifying an effect of conferring drought stress tolerance by a combination of Lys and ABA in wheat was carried out. Wheat (Norin 61) grown on rockwool under long-day conditions for 13 days was spray treated with 10 μM of ABA alone or with 2.5 mM or 10 mM of Lys and 10 μM of ABA in combination. As a control treatment group (Mock), the wheat was spray treated with DMSO. After the spray treatment, cultivation was continued without water supply, to subject wheat to drought stress. During cultivation, the water loss from the rockwool was measured. Water was again supplied to the wheat 21 days after the spray treatment, and the survival rate was measured 23 days after the spray treatment (n=24).

[5] = tested on: RD29A, RD29B, MAPKKK18, ABF3F and SLAC1 genes; assay: Induction of expression of environmental stress tolerance (ABA-responsive) genes, real-time PCR, relative to GAPDH; assay type: in vivo, Arabidopsis thaliana
Method: as §1
MAPKKK18 is a gene encoding a kinase (MAPKKK18, MITOGEN-ACTIVATED PROTEIN KINASE KINASE KINASE 18) that functions in the ABA signaling pathway of Arabidopsis thaliana (Zelicourt A. et al., Trends in Plant Science 21: (2016)). RD29A and RD29B are genes encoding hydrophilic proteins (RESPONSIVE TO DESICCATION 29A, RESPONSIVE TO DESICCATION 29B) that are responsive for ABA and environmental stress such as drought stress and salinity stress and considered to be involved in stress tolerance and senescence suppression (Yang S. D. et al., Plant Cell 6: 2155-2168 (2011)). ABF3 is a gene encoding a transcription factor (ABA-responsive element-binding protein) that regulates expression of ABA-responsive genes (Yoshida T. et al., Plant, cell and Environment 38: 35-49 (2015)). SLAC1 is a gene encoding an anion channel involved in stomatal closure (Yoshida et al., J Plant Res (2016) 129:39-49). GAPDH is a glyceraldehyde-3-phosphate dehydrogenase gene and was selected as an internal standard.
The expression levels of the genes were calculated as relative expression levels to the GAPDH gene. Twenty amino acids were divided into 10 each, and the gene expression inducing activity when combined with ABA was evaluated in two tests (n=2).
(§2) The expression levels of the respective genes were calculated as relative expression levels to the GAPDH gene in the same manner as in Example 1.
Separately, Arabidopsis thaliana was treated with a combination of 0.1 mM, 0.25 mM, 1 mM, 2.5 mM, 10 mM, or 25 mM of Lys and 0.25 μM of ABA in the same manner as in Example 1, and expression of MAPKKK18, RD29A, and RD29B genes after 6 hours of treatment was analyzed (n=3). The expression levels of the respective genes were calculated as relative expression levels to the GAPDH gene in the same manner as in Example 1. […]
as §2, §2

[6] = tested on: Arabidopsis thaliana; assay: Drought stress tolerance: dehydration amount during cultivation without water supply; assay type: in vivo; details: spray, control approximately 77%
Method: A test for verifying an effect of conferring drought stress tolerance by a combination of Lys and ABA was carried out (n=4). For Arabidopsis thaliana grown on rockwool under short-day conditions for 35 days, the weight of the rockwool and the whole plant was measured, to determine the initial weight. Arabidopsis thaliana was spray treated with 2.5 mM of Lys and 5 μM or 50 μM of ABA alone or in combination (first spray treatment). As a control treatment group, Arabidopsis thaliana was spray treated with DMSO (first spray treatment). After the first spray treatment, cultivation was continued for 7 days without water supply. During cultivation, a second spray treatment was carried out 4 days after the first spray treatment. The weight of the rockwool and the whole plant was measured 4 and 7 days after the first spray treatment, to determine the post-cultivation weight. The post-cultivation weight was subtracted from the initial weight, to determine the dehydration amount during cultivation.

[7] = tested on: RD29A, RD29B, MAPKKK18, ABF3F and SLAC1 genes; assay: Induction of expression of environmental stress tolerance (ABA-responsive) genes, real-time PCR, relative to GAPDH; assay type: in vivo, Arabidopsis thaliana; details: amino acid alone or combination with ABA, 6 hours, n=3
[8] = MAPKKK18, RD29A, RD29B, 0.05-2.5 mM Lys with 0.25 μM ABA, 6 hours, upper panel of FIG. 3

Structure (SMILES): CC1=CC(=O)CC(C)(C)C1(O)/C=C/C(C)=C\C(=O)O (racemic) [ABA, abscisic acid, reference compound]
- Yield (g/plot accumulation) ([1]; 10 μM ABA and/or 2.5 mM Lys): 1008.1 g/plot
- Yield (g/plot accumulation) ([1]; 100 μM ABA and/or 25 mM Lys): 1081.6 g/plot
- % to T2 ([1]; 10 μM ABA and/or 2.5 mM Lys): 109.1%
- % to T2 ([1]; 100 μM ABA and/or 25 mM Lys): 117.0%
- survival rate [2]: 13.5%
- Activity level [3]: 1
- survival rate ([4]; 23 days after spray, water supplied again at 21 days, Mock 9.4%): 6.7%
- dehydration amount on the 5th day ([4]; spray, control approximately 84%): approximately 61%
- dehydration amount on the 6th day ([4]; spray, control approximately 91%): approximately 82%
- Expression induction of RD29A and RD29B genes by ABA ([5]; wild-type strain (WT, Col-0), 0.25 μM ABA, 6 hours): observed
- dehydration amount on the 4th day ([6]; 5 μM ABA (2.5 mM Lys in the combination)): approximately 80.1%
- dehydration amount on the 4th day ([6]; 50 μM ABA (2.5 mM Lys in the combination)): approximately 57%

Structure (SMILES): NCCCC[C@H](N)C(=O)O [No. 1, lysine]
- Yield (g/plot accumulation) ([1]; 10 μM ABA and/or 2.5 mM Lys): 1089.3 g/plot
- Yield (g/plot accumulation) ([1]; 100 μM ABA and/or 25 mM Lys): 1114.6 g/plot
- % to T2 ([1]; 10 μM ABA and/or 2.5 mM Lys): 117.9%
- % to T2 ([1]; 100 μM ABA and/or 25 mM Lys): 120.6%
- activity to induce expression of the environmental stress tolerance gene RD29B [7]: No activity
- activity of synergistically enhancing the effect of the natural-type ABA ([5]; Lys in combination with natural-type ABA ((S)-(+)-ABA)): synergistically enhance the effect of the natural-type ABA
- Lys concentrations at which Lys concentration-dependent improvement in expression inducing activity was observed [5, 8]: ≥ 0.25 mM
- Lys concentrations at which no improvement in expression inducing activity was observed [5, 8]: ≤ 0.1 mM
- Lys concentration-dependent improvement in expression inducing activity ([5]; MAPKKK18, RD29A, RD29B, 0.1-25 mM Lys with 0.25 μM ABA, 6 hours, lower panel of FIG. 3): at least up to Lys concentrations of 10 mM or 25 mM
- effect of Lys on inducing expression of environmental stress tolerance genes by ABA ([5]; MAPKKK18 and RD29B, 1 mM Lys in combination with 0.25 μM ABA, 6 hours): enhanced
- effect of Lys on inducing expression of environmental stress tolerance genes by ABA agonist ([5]; MAPKKK18 and RD29B, 1 mM Lys in combination with opabactin (OP), 6 hours): enhanced
- effect of Lys on inducing expression of environmental stress tolerance genes by ABA agonist ([5]; MAPKKK18 and RD29B, 1 mM Lys in combination with quinabactin (QB), 6 hours): enhanced
- activity of synergistically enhancing the effect of ABA ([5]; RD29B expression, amino acid in combination with ABA, listed as Lys): synergistically enhance the effect of ABA; also recorded: significantly high activity
- effect of enhancing the ABA activity by Lys ([5]; wild-type strain, 0.5 mM Lys with 0.25 μM ABA, 6 hours): observed
